Values joined by “and” are separate entries in the source; they are usually repeats but may differ in a detail not shown here. Equal values may be shown once.
Tests used:
[1] = tested on: Neospora caninum Nc-1 tachyzoites; test: Neospora caninum Nc-Betagal proliferation; type: cell-based
[2] = target: T1, PfA-M1 (Plasmodium falciparum, UniProt O96935); test: rPfA-M1 aminopeptidase activity (Florent); type: biochemical, P. falciparum; details: for effect on rPfA-M1 in words: 100µM
T1 construct: encoding residues 192-1085 of native PfA-M1; hexahistidine (N); TEV cleavage site (ENLYFQS) (N); made in house; host or cells: Escherichia coli BL21 (DE3) Rosetta 2
T1 sequence (O96935 192-1085): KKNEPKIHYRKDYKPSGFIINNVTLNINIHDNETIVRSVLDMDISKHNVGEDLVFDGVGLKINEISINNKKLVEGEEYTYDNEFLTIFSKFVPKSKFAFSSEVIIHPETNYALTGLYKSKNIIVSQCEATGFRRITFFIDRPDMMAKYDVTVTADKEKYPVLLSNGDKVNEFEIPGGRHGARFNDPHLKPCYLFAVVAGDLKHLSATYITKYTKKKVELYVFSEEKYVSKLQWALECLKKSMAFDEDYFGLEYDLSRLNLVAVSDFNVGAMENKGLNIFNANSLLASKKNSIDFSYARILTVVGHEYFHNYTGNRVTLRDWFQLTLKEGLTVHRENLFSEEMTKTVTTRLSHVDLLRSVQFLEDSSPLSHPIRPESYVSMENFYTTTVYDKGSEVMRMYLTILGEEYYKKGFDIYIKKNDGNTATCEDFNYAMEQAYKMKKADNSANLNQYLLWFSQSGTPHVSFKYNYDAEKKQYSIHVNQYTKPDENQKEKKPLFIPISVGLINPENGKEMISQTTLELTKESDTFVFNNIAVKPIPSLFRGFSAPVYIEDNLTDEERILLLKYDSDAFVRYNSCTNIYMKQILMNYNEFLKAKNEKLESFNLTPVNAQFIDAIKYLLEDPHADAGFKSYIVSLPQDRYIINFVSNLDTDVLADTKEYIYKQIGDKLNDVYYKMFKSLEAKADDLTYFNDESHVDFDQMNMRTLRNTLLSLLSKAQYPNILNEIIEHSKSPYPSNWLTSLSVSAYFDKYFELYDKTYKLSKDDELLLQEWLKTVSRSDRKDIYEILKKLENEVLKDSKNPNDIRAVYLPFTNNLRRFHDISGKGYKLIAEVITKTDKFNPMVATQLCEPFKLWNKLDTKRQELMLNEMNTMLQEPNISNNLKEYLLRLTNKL

[3] = target: T2, PfA-M17 (Plasmodium falciparum, UniProt Q8IL11); test: rPfA-M17 aminopeptidase activity (Florent); type: biochemical, P. falciparum; details: for effect on rPfA-M17 in words: 100µM
T2 construct: residues 84-605 of native Plasmodium falciparum leucyl aminopeptidase PfA-M17 (PlasmoDB PF3D7_1446200); hexahistidine (N); TEV cleavage site (N); made in house; host or cells: Escherichia coli BL21 (DE3) Rosetta 2
T2 sequence (Q8IL11 84-605): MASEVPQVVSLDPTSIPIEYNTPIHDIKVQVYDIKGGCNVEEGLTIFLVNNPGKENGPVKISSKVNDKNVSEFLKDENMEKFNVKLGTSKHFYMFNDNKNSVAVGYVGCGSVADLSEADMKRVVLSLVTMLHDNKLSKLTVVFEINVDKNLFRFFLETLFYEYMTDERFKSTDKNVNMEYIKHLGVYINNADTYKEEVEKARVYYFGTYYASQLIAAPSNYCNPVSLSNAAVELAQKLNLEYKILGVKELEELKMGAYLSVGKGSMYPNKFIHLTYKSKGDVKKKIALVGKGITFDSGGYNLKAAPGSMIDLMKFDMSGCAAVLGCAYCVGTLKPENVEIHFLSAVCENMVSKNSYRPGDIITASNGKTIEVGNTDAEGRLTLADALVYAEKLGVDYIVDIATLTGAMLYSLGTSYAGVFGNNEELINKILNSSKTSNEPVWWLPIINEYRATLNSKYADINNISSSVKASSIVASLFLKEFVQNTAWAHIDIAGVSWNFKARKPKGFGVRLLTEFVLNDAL

[4] = tested on: Leishmania infantum MHOM/MA/BE/67; details: Run 1 and Run 2; ref [88]; read-out: L. infantum IC50 positive control; cited from earlier work
[5] = tested on: Toxoplasma gondii TS-4; details: ref [46]; cited from earlier work
[6] = tested on: Schistosoma mansoni schistosomula (somules); test: S. mansoni somules phenotypic screen Caffrey; details: 2.5 µM, 48 h
[7] = tested on: Schistosoma mansoni adult males; test: S. mansoni adult phenotypic and motility screen Caffrey
[8] = tested on: T. cruzi Tulahuen; details: ref [84]; read-out: Trypanosoma cruzi Tulahuen intracellular amastigotes in MRC5 cell line EC50; cited from earlier work
[9] = tested on: Atg8-Atg3; set-up: method as in ref [38] (a number printed in a supplementary file, which may have a reference list of its own: not looked up in the article's list); details: ref [38]; cited from earlier work
[10] = tested on: Trypanosoma brucei rhodesiense STIB 900; details: Run 1 and Run 2; ref [88]; read-out: T. rhodesiense IC50 positive control; cited from earlier work
[11] = tested on: T. b. brucei Squib 427; details: Run 1 and Run 2; ref [88]; read-out: T. brucei brucei IC50 positive control; cited from earlier work
[12] = tested on: P. falciparum 3D7 trophozoites; test: Metabolomic fingerprint profiling LC-MS; type: cell-based, Plasmodium falciparum; set-up: UDP-D-glucose / ADP-D-glucose: unit not given here
[13] = tested on: P. falciparum; test: EC50 listed in S2 Table Metabolomics (used to set the concentration tested); type: cell-based; details: Plasmodium falciparum; EC50 used for Factor_XEC50 in metabolomics; read-out: EC50_nM
[14] = metabolite level change after treatment

In the case of `CCOc1ccc2cc(-c3nn(CC4CCN(C)CC4)c4ncnc(N)c34)ccc2c1` [BKI-1294, reference compound], the “N. caninum proliferation, positive control” value ([1]; 1µM) is reported as “complete block of proliferation”.

With `COc1ccc(Nc2cc(C)nc(NCc3ccccc3)n2)cc1` [MMV006825] the “effect on rPfA-M1 in words” value [2] was “particularly effective” and the “effect on rPfA-M17 in words” value [3] was “only moderately inhibiting”.

In the case of `CCCCCCCCCCCCCCCCOP(=O)([O-])OCC[N+](C)(C)C` [Miltefosine, reference compound], the IC50 [4] is given as 7.1 µM and 9 µM.

In the case of `Clc1ccc2c(N3CCCC3)ccnc2c1` [MMV007363], the “non-toxic compounds active against T. gondii” value (“non-toxic compounds active” below) [5] is listed as “active”.

In the case of `Cc1ccc(NC(=O)Nc2cccc(Cl)c2)cc1F` [MMV000911], the “non-toxic N. caninum actives” value [1] is reported as “non-toxic N. caninum actives”.

With `O=C(Nc1ccc([N+](=O)[O-])cc1Cl)c1cc(Cl)ccc1O` [niclosamide] the somule severity score [6] was 4, the “S. mansoni adult males 48hr motility assay” value ([7]; 48 h, 5µM) was “zero” and the “S. mansoni adult males visual tox scale, 0 = none, 4=most damaged” value ([7]; 48hr at 5 µM) was 4.

In the case of `CN(C)c1ccc(-c2nc3cc(N)ccc3[nH]2)cc1` [MMV666102], the “effect on rPfA-M1 in words” value [2] is reported as “particularly effective”.

`CC(C)C[C@H](NC(=O)[C@@H](O)[C@H](N)Cc1ccccc1)C(=O)O` [bestatin, reference compound] showed an inhibition at 100 µM [2] of 57% and an inhibition at 100 µM [3] of 100%.

In the case of `CCOc1cccc2sc(N(Cc3cccnc3)C(=O)C3CCCCC3)nc12` [MMV001230], the EC50 [8] is given as 156 nM.

In the case of `O=C(Nc1ccc(N2CCN(Cc3ccccc3)CC2)cc1)c1cccs1` [MMV019670], the “non-toxic N. caninum actives” value [1] is reported as “non-toxic N. caninum actives”.

In the case of `CCCCN(CCCC)S(=O)(=O)c1ccc(NC(=O)c2ccco2)cc1` [MMV007881], the “non-toxic compounds active” value [5] is listed as “active”.

In the case of `CCOc1ccccc1NC(=O)CN1CCN(C(=O)c2ccco2)CC1` [MMV007791], the “non-toxic compounds active” value [5] is listed as “active”.

For `O=C(Nc1nc(-c2ccccn2)cs1)c1ccccc1Br` [MMV665909], the “PPI inhibitors of Atg8-Atg3 interaction” value [9] is listed as “PPI inhibitors”.

For `CN(C)CCNc1cc(-c2ccccc2)nc2ccccc12` [MMV006704], the “non-toxic compounds active” value [5] is given as “active”.

In the case of `CCCc1c(C)nc2ccc(Br)cc2c1O` [MMV666095], the “non-toxic compounds active” value [5] is given as “active”.

In the case of `COc1ccc(C2c3ccc4ccccc4c3Oc3ncn(CCCn4ccnc4)c(=N)c32)cc1OC` (centres unmarked) [MMV667490], the “effect on rPfA-M1 in words” value [2] is reported as “particularly effective” and the “effect on rPfA-M17 in words” value [3] is reported as “only moderately inhibiting”.

For `Cc1ccc(C(=O)Nc2ccc(S(=O)(=O)O)c3cc(S(=O)(=O)O)cc(S(=O)(=O)O)c23)cc1NC(=O)c1cccc(NC(=O)Nc2cccc(C(=O)Nc3cc(C(=O)Nc4ccc(S(=O)(=O)O)c5cc(S(=O)(=O)O)cc(S(=O)(=O)O)c45)ccc3C)c2)c1` [Suramin, reference compound], the IC50 [10] is listed as 70 nM and 50 nM and the IC50 [11] is listed as 60 nM and 50 nM.

With `CN(C)c1ccc(C=Cc2nc(=O)c3ccccc3o2)cc1` [MMV006309] the “non-toxic N. caninum actives” value [1] was “non-toxic N. caninum actives”, the Acetyllysine ([12]; S2 Table Metabolomics, metabolite Acetyllysine) was -0.06229 and the N-acetyl-L-ornithine ([12]; S2 Table Metabolomics, metabolite N-acetyl-L-ornithine) was 0.06709. The N-carbamoyl-L-aspartate ([12]; S2 Table Metabolomics, metabolite N-carbamoyl-L-aspartate) was 2.985, the NADPH ([12]; S2 Table Metabolomics, metabolite NADPH) was -0.04695 and the dAMP ([12]; S2 Table Metabolomics, metabolite dAMP) was -0.4457. It also gave a dCMP ([12]; S2 Table Metabolomics, metabolite dCMP) of 0.07949, a dTDP ([12]; S2 Table Metabolomics, metabolite dTDP) of -0.6452 and a dTMP ([12]; S2 Table Metabolomics, metabolite dTMP) of -0.3602. It also gave a dTTP ([12]; S2 Table Metabolomics, metabolite dTTP) of -0.2468, a dihydroorotate ([12]; S2 Table Metabolomics, metabolite dihydroorotate) of 3.691 and an orotate ([12]; S2 Table Metabolomics, metabolite orotate) of -0.6105. It also gave a DLH ([12]; S2 Table Metabolomics, peptide DLH) of -0.3184, a DLS/SDL/SID ([12]; S2 Table Metabolomics, peptide DLS/SDL/SID) of -0.2456 and a PD ([12]; S2 Table Metabolomics, peptide PD) of 0.4341. It also gave a PEE ([12]; S2 Table Metabolomics, peptide PEE) of -0.1161, a PVNF ([12]; S2 Table Metabolomics, peptide PVNF) of -0.4902 and a 3-phosphoglycerate ([12]; metabolite 3-phosphoglycerate, S2 Table Metabolomics) of -0.1315. It also gave an ADP-D-glucose ([12]; metabolite ADP-D-glucose, S2 Table Metabolomics) of 0.1572, an ATP ([12]; metabolite ATP, S2 Table Metabolomics) of 0.2918 and a CDP ([12]; metabolite CDP, S2 Table Metabolomics, change in metabolite level after compound treatment) of -0.5525. The D-sedoheptulose-1/7-phosphate ([12]; metabolite D-sedoheptulose-1/7-phosphate, S2 Table Metabolomics, change in metabolite level after compound treatment) was 0.4312, the FAD ([12]; metabolite FAD, S2 Table Metabolomics) was 0.6491 and the GMP ([12]; metabolite GMP, S2 Table Metabolomics, change in metabolite level after compound treatment) was 2.281. The “NAD+” value ([12]; metabolite NAD+, S2 Table Metabolomics) was 0.2407, the “NADP+” value ([12]; metabolite NADP+, S2 Table Metabolomics) was 0.05923 and the “Octoluse Bisphosphate” value ([12]; metabolite Octoluse Bisphosphate, S2 Table Metabolomics, change in metabolite level after compound treatment) was 0.03854. It also gave a Pyroglutamic acid ([12]; metabolite Pyroglutamic acid, S2 Table Metabolomics) of -0.251, a UDP-D-glucose ([12]; metabolite UDP-D-glucose, S2 Table Metabolomics) of 0.2158 and a UDP-D-glucuronate ([12]; metabolite UDP-D-glucuronate, S2 Table Metabolomics) of 0.1905. The UDP-N-acetyl-glucosamine ([12]; metabolite UDP-N-acetyl-glucosamine, S2 Table Metabolomics) was 0.2147, the UDP ([12]; metabolite UDP, S2 Table Metabolomics, change in metabolite level after compound treatment) was -0.5733 and the UMP ([12]; metabolite UMP, S2 Table Metabolomics, change in metabolite level after compound treatment) was -0.8586. It also gave a UTP ([12]; metabolite UTP, S2 Table Metabolomics, change in metabolite level after compound treatment) of -0.4965, an a-ketoglutarate ([12]; metabolite a-ketoglutarate, S2 Table Metabolomics) of -0.2334 and a citrate/isocitrate ([12]; metabolite citrate/isocitrate, S2 Table Metabolomics, change in metabolite level after compound treatment) of -0.148. It also gave a cytidine ([12]; metabolite cytidine, S2 Table Metabolomics) of 0.1715, a dATP ([12]; metabolite dATP, S2 Table Metabolomics) of 0.5165 and a dGMP/AMP ([12]; metabolite dGMP/AMP, S2 Table Metabolomics, change in metabolite level after compound treatment) of -0.4086. It also gave a fumarate ([12]; metabolite fumarate, S2 Table Metabolomics, change in metabolite level after compound treatment) of 0.4652, a glucose-1/6-phosphate ([12]; metabolite glucose-1/6-phosphate, S2 Table Metabolomics, change in metabolite level after compound treatment) of 0.457 and a glycerate ([12]; metabolite glycerate, S2 Table Metabolomics, change in metabolite level after compound treatment) of 0.3869. The guanine ([12]; metabolite guanine, S2 Table Metabolomics, change in metabolite level after compound treatment) was 0.4747, the guanosine ([12]; metabolite guanosine, S2 Table Metabolomics, change in metabolite level after compound treatment) was 0.5548 and the hypoxanthine ([12]; metabolite hypoxanthine, S2 Table Metabolomics) was -0.07215. For the same compound, the indole ([12]; metabolite indole, S2 Table Metabolomics) was -0.02242, the inosine ([12]; metabolite inosine, S2 Table Metabolomics, change in metabolite level after compound treatment) was 0.08258 and the 2_3-Diphosphoglyceric acid [12, 14] was 0.3655. The 4-phosphopantothenate [12, 14] was -0.02209, the 6-phospho-D-gluconate [12, 14] was 0.4028 and the FMN [12, 14] was 0.2378. For the same compound, the IMP [12, 14] was -0.05126, the Pyrophosphate [12, 14] was 0.2614 and the Sedoheptoluse bisphosphate [12, 14] was 0.2668. For the same compound, the cyclic-AMP [12, 14] was 0.09044, the glutathione disulfide [12, 14] was 0.5032 and the lactate [12, 14] was 0.1016. It also gave a myo-inositol [12, 14] of 0.2436, a nicotinate ([12]; metabolite nicotinate, S2 Table Metabolomics) of 0.1263 and an ornithine ([12]; metabolite ornithine, S2 Table Metabolomics) of -0.005843. The phosphoenolpyruvate ([12]; metabolite phosphoenolpyruvate, S2 Table Metabolomics) was -0.2041, the pyruvate ([12]; metabolite pyruvate, S2 Table Metabolomics, change in metabolite level after compound treatment) was -0.06331 and the ribose-phosphate ([12]; metabolite ribose-phosphate, S2 Table Metabolomics) was -0.02548. The sarcosine/alanine ([12]; metabolite sarcosine/alanine, S2 Table Metabolomics, change in metabolite level after compound treatment) was 0.5971, the sn-glycerol-3-phosphate ([12]; metabolite sn-glycerol-3-phosphate, S2 Table Metabolomics) was -0.04439 and the succinate/methylmalonic acid ([12]; metabolite succinate/methylmalonic acid, S2 Table Metabolomics, change in metabolite level after compound treatment) was 0.1372. It also gave a uridine ([12]; metabolite uridine, S2 Table Metabolomics, change in metabolite level after compound treatment) of -0.2519, a xanthosine ([12]; metabolite xanthosine, S2 Table Metabolomics, change in metabolite level after compound treatment) of 0.3479 and an EC50 [13] of 51.5 nM.

— PMC4965013, “Open Source Drug Discovery with the Malaria Box Compound Collection for Neglected Diseases and Beyond” (PLoS Pathogens, 2016)
